Results reported in patent US20220089575A1, “FARNESOID X RECEPTOR AGONISTS AND USES THEREOF” (Metacrine, Inc., priority 2017, published 2022).
pEC50: −log10 of the molar value.

Biological target: T1, hFXR (Homo sapiens, UniProt Q96RI1)
T1 construct: expressed in transfected cells; host or cells: CV-1 cells
T1 sequence (Q96RI1 1-486): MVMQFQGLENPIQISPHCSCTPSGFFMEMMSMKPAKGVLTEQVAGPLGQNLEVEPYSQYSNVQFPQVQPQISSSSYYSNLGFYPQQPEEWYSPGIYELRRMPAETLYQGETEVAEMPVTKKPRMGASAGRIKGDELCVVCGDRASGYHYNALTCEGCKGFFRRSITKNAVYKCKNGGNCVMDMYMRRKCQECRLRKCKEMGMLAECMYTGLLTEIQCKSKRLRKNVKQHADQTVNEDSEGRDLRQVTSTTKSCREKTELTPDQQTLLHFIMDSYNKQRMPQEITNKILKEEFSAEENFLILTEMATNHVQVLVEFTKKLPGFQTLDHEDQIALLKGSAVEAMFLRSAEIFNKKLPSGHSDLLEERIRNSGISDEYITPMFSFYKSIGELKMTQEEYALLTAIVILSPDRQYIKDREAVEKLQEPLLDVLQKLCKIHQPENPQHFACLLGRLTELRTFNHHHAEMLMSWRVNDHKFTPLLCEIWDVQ
T1 sequence (P19793 1-462 partner): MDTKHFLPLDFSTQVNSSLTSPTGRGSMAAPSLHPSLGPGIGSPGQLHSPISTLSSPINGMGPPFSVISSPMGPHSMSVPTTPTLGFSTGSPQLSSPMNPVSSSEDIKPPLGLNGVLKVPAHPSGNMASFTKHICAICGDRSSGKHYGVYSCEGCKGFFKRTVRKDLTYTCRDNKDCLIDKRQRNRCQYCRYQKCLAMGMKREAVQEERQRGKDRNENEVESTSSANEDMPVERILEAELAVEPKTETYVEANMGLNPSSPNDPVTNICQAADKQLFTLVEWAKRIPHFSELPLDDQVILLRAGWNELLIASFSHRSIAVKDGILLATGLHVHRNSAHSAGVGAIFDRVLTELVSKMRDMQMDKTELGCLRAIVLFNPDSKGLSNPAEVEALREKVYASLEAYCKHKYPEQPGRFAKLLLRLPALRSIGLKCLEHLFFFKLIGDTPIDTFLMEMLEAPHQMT
Test: In Vitro FXR Assay (TK): TK-ECRE-luc reporter in transfected CV-1 cells
Format: cell-based
Conditions: 18 hrs, luminescence, maximum efficacy of <25% of the Fexarmine control classified as '+'
Summary of the method: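 Luciferase luminescence read-out from lysed CV-1 cells transiently co-expressing hFXR and hRXR with a TK-ECRE-luc reporter (pCMX-YFP co-transfected). Compound exposure lasted 18 h at 37 °C, 5% CO2, in medium containing charcoal super-stripped serum.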

pEC50	Structure (SMILES)
≥ 6.60	CNC(=O)[C@H]1CC[C@H](C(=O)N(C[C@H]2CC[C@H](c3ccc(OC)c(C)c3)CC2)c2cccc(-c3cnc(OC)s3)c2)CC1 [Compound 24, trans-N^1-((trans-4-(4-Methoxy-3-methylphenyl)cyclohexyl)methyl)-N^1-(3-(2-methoxythiazol-5-yl)phenyl)-M-methylcyclohexane-1,4-dicarboxamide]
≥ 6.60	COc1ncc(-c2cccc(N(C[C@H]3CC[C@H](c4ccc(OC)c(C)c4)CC3)C(=O)[C@H]3CC[C@H](C(=O)NS(C)(=O)=O)CC3)c2)s1 [Compound 24.06, trans-N^1-((trans-4-(4-Methoxy-3-methylphenyl)cyclohexyl)methyl)-N^1-(3-(2-methoxythiazol-5-yl)phenyl)-N^4-(methylsulfonyl) cyclohexane-1,4-dicarboxamide]
≥ 6.60	COc1ccc([C@H]2CC[C@H](CN(c3cccc(-c4cnn(C(C)C)c4)c3)C(=O)[C@H]3CC[C@H](NC(=O)CO)CC3)CC2)cc1C [Compound 26.12, trans-4-(2-Hydroxyacetamido)-N-(3-(1-isopropyl-1H-pyrazol-4-yl)phenyl)-N-((trans-4-(4-methoxy-3-methylphenyl)cyclohexyl)methyl) cyclohexanecarboxamide]
≥ 6.60	COc1ccc([C@H]2CC[C@H](CN(c3cc(-c4cnn(C(C)C)c4)ccn3)C(=O)[C@H]3CC[C@H](CC(=O)O)CC3)CC2)cc1C#N [Compound 17.26, 2-(trans-4-(((trans-4-(3-Cyano-4-methoxyphenyl)cyclohexyl)methyl)(4-(1-isopropyl-1H-pyrazol-4-yl)pyridin-2-yl)carbamoyl)cyclohexyl)acetic acid]
≥ 6.60	COc1ccc([C@H]2CC[C@H](CN(c3cccc(-c4cnc(C5CC5)s4)c3)C(=O)[C@H]3CC[C@H](c4nnn[nH]4)CC3)CC2)cc1C [Compound 33, trans-N-(3-(2-Cyclopropylthiazol-5-yl)phenyl)-N-((trans-4-(4-methoxy-3-methylphenyl)cyclohexyl)methyl)-4-(2H-tetrazol-5-yl)cyclohexanecarboxamide]
≥ 6.60	COc1ccc([C@H]2CC[C@H](CN(c3cccc(-c4cnc(C5CC5)s4)c3)C(=O)[C@H]3CC[C@H](N(C)C(C)=O)CC3)CC2)cc1C [Compound 25.10, trans-N-(3-(2-Cyclopropylthiazol-5-yl)phenyl)-N-((trans-4-(4-methoxy-3-methylphenyl)cyclohexyl)methyl)-4-(N-methylacetamido) cyclohexanecarboxamide]
≥ 6.60	COc1ccc([C@H]2CC[C@H](CN(c3cccc(-c4cnc(C5CC5)s4)c3)C(=O)[C@H]3CC[C@H](NC(=O)CN(C)C)CC3)CC2)cc1C [Compound 31.06, trans-N-(3-(2-Cyclopropylthiazol-5-yl)phenyl)-4-(2-(dimethylamino)acetamido)-N-((trans-4-(4-methoxy-3-methylphenyl)cyclohexyl)methyl)cyclohexanecarboxamide]

Further lines, the compound ahead of its results:

Structure (SMILES)	pEC50
Cn1nc(F)c2cc([C@H]3CC[C@H](CN(c4cccc(-c5cnn(C6CC6)c5)c4)C(=O)[C@H]4CC[C@H](C(=O)O)CC4)CC3)ccc21 [Compound 17.16, trans-4-((3-(1-Cyclopropyl-1H-pyrazol-4-yl)phenyl)((trans-4-(3-fluoro-1-methyl-1H-indazol-5-yl)cyclohexyl)methyl)carbamoyl) cyclohexanecarboxylic acid]	≥ 6.60
COc1ccc([C@H]2CC[C@H](CN(c3cc(-c4cnn(C(C)C)c4)ccn3)C(=O)[C@H]3CC[C@H](OC(=O)N4CC(S(C)(=O)=O)C4)CC3)CC2)nc1C [Compound 6.39, trans-4-((4-(1-Isopropyl-1H-pyrazol-4-yl)pyridin-2-yl)((trans-4-(5-methoxy-6-methylpyridin-2-yl)cyclohexyl)methyl)carbamoyl)cyclohexyl 3-(methylsulfonyl)azetidine-1-carboxylate]	≥ 6.60
COc1ccc([C@H]2CC[C@H](CN(c3cc(-c4coc(C5CC5)n4)ccn3)C(=O)[C@H]3CC[C@H](OC(=O)NCC(C)O)CC3)CC2)nc1C (stereo partly drawn) [Compound 6.72, trans-4-((4-(2-Cyclopropyloxazol-4-yl)pyridin-2-yl)((trans-4-(5-methoxy-6-methylpyridin-2-yl)cyclohexyl)methyl)carbamoyl)cyclohexyl (2-hydroxypropyl)carbamate]	≥ 6.60
CCc1nc(-c2ccnc(N(C[C@H]3CC[C@H](c4ccc(OC)c(C)n4)CC3)C(=O)[C@H]3CC[C@H](OC(=O)N4CC(O)C4)CC3)c2)co1 [Compound 7.109, trans-4-((4-(2-Ethyloxazol-4-yl)pyridin-2-yl)((trans-4-(5-methoxy-6-methylpyridin-2-yl)cyclohexyl)methyl)carbamoyl)cyclohexyl 3-hydroxyazetidine-1-carboxylate]	≥ 6.60
COC(=O)CC1CN(C(=O)O[C@H]2CC[C@H](C(=O)N(C[C@H]3CC[C@H](c4ccc(OC)c(C)n4)CC3)c3cc(-c4coc(C5CC5)n4)ccn3)CC2)C1 [Compound 7.85, trans-4-((4-(2-Cyclopropyloxazol-4-yl)pyridine-2-yl)((trans-4-(5-methoxy-6-methylpyridin-2-yl)cyclohexyl)methyl)carbamoyl)cyclohexyl 3-(2-methoxy-2-oxoethyl)azetidine-1-carboxylate]	≥ 6.60
CNC(=O)O[C@H]1CC[C@H](C(=O)N(C[C@H]2CC[C@H](c3ccc(OC)c(C)c3)CC2)c2cccc(-c3ccc(C4CC4)nc3)c2)CC1 [Compound 5.37, trans-4-((3-(6-Cyclopropylpyridin-3-yl)phenyl)((trans-4-(4-methoxy-3-methylphenyl)cyclohexyl)methyl)carbamoyl)cyclohexyl methylcarbamate]	≥ 6.60
CNC(=O)O[C@]1(C)CC[C@H](C(=O)N(C[C@H]2CC[C@H](c3ccc(OC)c(C)c3)CC2)c2cccc(-c3cnn(C(C)C)c3)c2)CC1 [Compound 5.53, cis-4-((3-(1-Isopropyl-1H-pyrazol-4-yl)phenyl)(trans-4-(4-methoxy-3-methylphenyl)cyclohexyl)methyl)carbamoyl)-1-methylcyclohexyl methylcarbamate]	≥ 6.60
COc1ccc([C@H]2CC[C@H](CN(c3cc(-c4cnc(C5CC5)s4)ccn3)C(=O)[C@H]3CC[C@H](OC(=O)NCCO)CC3)CC2)cc1C [Compound 6.02, trans-4-((4-(2-Cyclopropylthiazol-5-yl)pyridin-2-yl)((trans-4-(4-methoxy-3-methylphenyl)cyclohexyl)methyl)carbamoyl)cyclohexyl (2-hydroxyethyl) carbamate]	≥ 6.60
CNC(=O)O[C@H]1CC[C@H](C(=O)N(C[C@H]2CC[C@H](c3ccc(OC)c(C)n3)CC2)c2cccc(-c3cnn(C(C)C)c3)c2)CC1 [Compound 1.10, trans-4-((3-(1-Isopropyl-1H-pyrazol-4-yl)phenyl)((trans-4-(5-methoxy-6-methylpyridin-2-yl)cyclohexyl)methyl)carbamoyl)cyclohexyl methylcarbamate]	≥ 6.60
COc1ccc([C@H]2CC[C@H](CN(c3cc(-c4coc(C5CC5)n4)ccn3)C(=O)[C@H]3CC[C@H](CO)CC3)CC2)nc1C [Compound 15.04, trans-N-(4-(2-Cyclopropyloxazol-4-yl)pyridin-2-yl)-4-(hydroxymethyl)-N-((trans-4-(5-methoxy-6-methylpyridin-2-yl)cyclohexyl)methyl) cyclohexanecarboxamide]	≥ 6.60
CNC(=O)O[C@H]1CC[C@H](C(=O)N(C[C@H]2CC[C@H](c3ccc(OC)c(C)c3)CC2)c2cccc(-c3coc(C(C)C)n3)c2)CC1 [Compound 5.30, trans-4-((3-(2-Isopropyloxazol-4-yl)phenyl)((trans-4-(4-methoxy-3-methylphenyl)cyclohexyl)methyl)carbamoyl)cyclohexyl methylcarbamate]	≥ 6.60
CNC(=O)O[C@H]1CC[C@H](C(=O)N(C[C@H]2CC[C@H](c3ccc(OC)c(C)c3)CC2)c2cccc(-c3coc(C4CC4)n3)c2)CC1 [Compound 2.06, trans-4-((3-(2-Cyclopropyloxazol-4-yl)phenyl)((trans-4-(4-methoxy-3-methylphenyl)cyclohexyl)methyl)carbamoyl)cyclohexyl) methylcarbamate]	≥ 6.60
COc1ncc([C@H]2CC[C@H](CN(c3cc(-c4coc(C5CC5)n4)ccn3)C(=O)[C@H]3CC[C@H](OC(=O)N4CC(O)C4)CC3)CC2)cc1C [Compound 7.94, trans-4-((4-(2-Cyclopropyloxazol-4-yl)pyridine-2-yl)((trans-4-(6-methoxy-5-methylpyridin-3-yl)cyclohexyl)methyl)carbamoyl)cyclohexyl 3-hydroxyazetidine-1-carboxylate]	≥ 6.60
